{"source": "patent US10500274B2", "about": "“Methods for reducing viral load in HIV-1 infected patients” (CytoDyn Inc., priority 2008, dated 2019)", "key": {"[1]": {"system": "HIV-1JR-FL envelope-mediated membrane fusion", "assay": "microbe, parasite or virus in culture", "format": "cell-based", "parameters": "CI90: unit not given beside the values"}, "[2]": {"system": "reporter viruses pseudotyped with HIV-1SF162 envelope (U87-CD4-CCR5 cells)", "assay": "HIV-1 pseudovirus assay, SF162 envelope", "format": "cell-based", "conditions": "Human immunodeficiency virus 1, U87/CD4/CCR5", "excerpt": "A self-inactivating (SIN) vector was derived from the pNL4-3ΔEnv-luciferase vector (Dragic et al. 1996) by deleting 507 basepairs in the U3 region of the 3′ long terminal repeat (LTR) so as to remove the TATA box and transcription factor binding sites. The human cytomegalovirus promoter was inserted upstream of the luciferase (luc) gene to enable expression of luciferase following integration.\nReporter viruses pseudotyped with HIV-1JR-FL or HIV-15F162 envelopes were generated by cotransfection of 293T cells with the SIN vector and the appropriate pcDNA env-expressing vector as previously described (Dragic et al. 1996). U87-CD4-CCR5 cells (8,000/well; NIH AIDS Research and Reference Reagent Program) were infected with 125-375 pg of HIV-L pseudoviruses in 384-well plates in the presence or absence of inhibitor(s). Cultures were incubated for 72 h at 37° C. in DMEM containing 10% fetal bovine serum, […], 0.3 mg/mL geneticin, antibiotics, and 0.5% DMSO. Luciferase activity (relative light units or RLU) was measured using BrightGlo reagent (Promega, Madison, Wis.) according to the manufacturer's instructions.\nExperimental design and data analysis were based on the combination index (CI) method (Chou et al. 1991; Chou et al. 1984). […] The mutually exclusive CI formula was used for combinations of CCR5 inhibitors, while the mutually non-exclusive formula was utilized for combinations of inhibitors to distinct targets (Chou et al. 1991). Each test was conducted 4-12 times. Synergy, additivity and antagonism are indicated by CI<1, CI=1 and CI>1, respectively.\nIn the Bonferroni correction, P=α/n, where n is the number of comparisons. Twenty-two synergy comparisons (11 compounds×2 CI values) were made based on data generated in the membrane fusion assay, resulting in a corrected P value of 0.0023."}, "[3]": {"system": "reporter viruses pseudotyped with HIV-1JR-FL envelope (U87-CD4-CCR5 cells)", "assay": "microbe, parasite or virus in culture", "format": "cell-based", "conditions": "for IC50 / IC90: Human immunodeficiency virus 1, U87/CD4/CCR5"}, "HIV-1": {"system": "HIV-1", "conditions": "dose-dependent, treatment period of 10-14 days; cited from earlier work"}, "CCR5": {"molecular_target": "CCR5 (Homo sapiens, UniProt P51681)", "sequence (P51681 whole entry)": "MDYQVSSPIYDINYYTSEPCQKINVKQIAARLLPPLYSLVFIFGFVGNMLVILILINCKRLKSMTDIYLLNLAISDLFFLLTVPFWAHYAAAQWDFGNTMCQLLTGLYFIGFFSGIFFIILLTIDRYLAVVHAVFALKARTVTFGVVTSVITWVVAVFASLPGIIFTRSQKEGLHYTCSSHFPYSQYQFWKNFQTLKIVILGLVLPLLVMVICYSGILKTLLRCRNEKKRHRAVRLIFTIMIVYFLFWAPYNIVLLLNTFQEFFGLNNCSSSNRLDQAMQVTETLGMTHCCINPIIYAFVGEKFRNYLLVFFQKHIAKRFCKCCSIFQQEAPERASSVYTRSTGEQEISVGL", "conditions": "cited from earlier work"}, "[4]": {"system": "HIV-1 Env-mediated fusion (HeLa-EnvJRFL with CEM NKR-CCR5 cells)", "assay": "HIV-1 RET cell-cell fusion assay, combination testing (Part II)", "conditions": "PRO 140 in combination with the labelled inhibitor, 1:1 molar ratio", "description": "Serial dilutions of small molecules were conducted in DMSO. Subsequent dilutions were conducted in medium to achieve a final DMSO concentration in the assay of 0.5%. Peptides and mAbs were diluted in PBS in the absence of DMSO.\nBriefly, fluorescein octadecyl ester (F18; Molecular Probes, Eugene, Oreg.; 5 mg/ml in ethanol), was diluted 1:800 in DMEM labeling medium (DMEM; Invitrogen, Carlsbad, Calif.) with 10% fetal bovine serum (FBS; HyClone, Logan, Utah) and adjusted to an A506 of 0.34±10%. […] Both dyes were further diluted 2-fold by addition to cells in T75-cm^2 flasks. HeLa-EnvJRFL and CEM NKR-CCR5 cells were incubated overnight in F18- and R18-containing culture medium, respectively. […] The plates were then read on a fluorescence plate reader (Victor^2, Perkin Elmer, Boston, Mass.) using the excitation/emission filter combinations shown in Table 6a. […]\nIC50 values were generated for all combinations as described above. Combination Index (CI) and Dose Reduction (DR) values were calculated according to the following formulas:\nCombinations with CI<1 are determined to be synergistic, whereas combinations with CI>1 are determined to be antagonistic. […]\nIn this assay, effector cells are labeled with the F18 dye and target cells with the R18 dye. […] Drug susceptibility is measured by adding serial concentrations of drugs to target cells prior to addition of effector cells. […]"}, "[5]": {"conditions": "Human immunodeficiency virus 1, 1st inhibitor alone"}}, "note": "Where two headings read alike, the source gives them in different places.", "data": [{"compound": "COc1ccnc2[nH]cc(C(=O)C(=O)N3CCN(C(=O)c4ccccc4)C[C@H]3C)c12", "note": "[BMS-378806, (R)—N-(benzoyl)-3-methyl-N′-[(4-methoxy-7-azaindol-3-yl)-oxoacetyl]-piperazine]", "values": [{"measurement": "IC50", "setting": "[1]; [5]", "result": 5.2, "unit": "nM"}, {"measurement": "IC90", "setting": "[1]; [5]", "result": 20, "unit": "nM"}, {"measurement": "IC50", "setting": "[2]", "result": 0.03, "unit": "nM"}, {"measurement": "IC90", "setting": "[2]", "result": 0.42, "unit": "nM"}, {"measurement": "IC50", "setting": "[3]", "result": 1.2, "unit": "nM"}, {"measurement": "IC90", "setting": "[3]", "result": 11, "unit": "nM"}]}, {"compound": "CCCCN1C(=O)[C@@H]([C@H](O)C2CCCCC2)NC(=O)C12CCN(Cc1ccc(Oc3ccc(C(=O)O)cc3)cc1)CC2", "note": "[GW873140]", "values": [{"measurement": "mean reduction in HIV-1 RNA levels", "setting": "HIV-1", "result": "~1", "unit": "log10"}]}, {"compound": "CCO/N=C(\\c1ccc(Br)cc1)C1CCN(C2(C)CCN(C(=O)c3c(C)cc[n+]([O-])c3C)CC2)CC1", "note": "[SCH-C]", "values": [{"measurement": "mean reduction in HIV-1 RNA levels", "setting": "HIV-1", "result": "~1", "unit": "log10"}]}, {"compound": "COC[C@@H](c1ccc(C(F)(F)F)cc1)N1CCN(C2(C)CCN(C(=O)c3c(C)ncnc3C)CC2)C[C@@H]1C", "note": "[SCH-D, 1-[(4,6-dimethyl-5-pyrimidinyl)carbonyl]-4-[4-[2-methoxy-1(R)-4-(trifluoromethyl)phenyl]ethyl-3(S)-methyl-1-piperazinyl]-4-methylpiperidine]", "values": [{"measurement": "CI90", "setting": "[1]; SCH-D with UK-427,857 1:1, experiment depicted in FIG. 15B", "result": 0.73}, {"measurement": "IC90", "setting": "[1]; SCH-D with UK-427,857, 1:1 fixed molar ratio, FIG. 15B, read-out: IC90 of the combination", "result": 31, "unit": "nM"}, {"measurement": "mean reduction in HIV-1 RNA levels", "setting": "HIV-1", "result": "~1", "unit": "log10"}]}, {"compound": "CCCCOCCOc1ccc(-c2ccc3c(c2)/C=C(/C(=O)Nc2ccc([S+]([O-])Cc4cncn4CCC)cc2)CCCN3CC(C)C)cc1", "note": "(stereo not drawn) [TAK-652]", "values": [{"measurement": "anti-HIV-1 activity in vitro", "setting": "CCR5; Baba et al., 2005", "result": "nanomolar range"}, {"measurement": "oral bioavailability", "setting": "CCR5; Baba et al., 2005", "result": "orally bioavailable"}, {"measurement": "tolerability", "setting": "CCR5; TAK-779: Iizawa et al., 2003, TAK-652: single oral dose, healthy male volunteers", "result": "safe and well tolerated"}]}, {"compound": "Cc1nnc(C(C)C)n1C1CC2CCC(C1)N2CC[C@H](NC(=O)C1CCC(F)(F)CC1)c1ccccc1", "note": "(stereo partly drawn) [UK-427,857]", "values": [{"measurement": "IC50", "setting": "[1]; [5]", "result": 5.3, "unit": "nM"}, {"measurement": "IC90", "setting": "[1]; [5]", "result": 27, "unit": "nM"}, {"measurement": "IC90", "setting": "[1]; Human immunodeficiency virus 1, inhibitor alone, experiment depicted in FIG. 15A", "result": 21, "unit": "nM"}, {"measurement": "IC90", "setting": "[1]; Human immunodeficiency virus 1, inhibitor alone, experiment depicted in FIG. 15B", "result": 59, "unit": "nM"}, {"measurement": "IC50", "setting": "[1]; Human immunodeficiency virus 1, read-out: IC50 of the combination, UK-427,857 with PRO 140, 1:1 fixed molar ratio, total concentration, FIG. 15A", "result": 2.1, "unit": "nM"}, {"measurement": "IC90", "setting": "[1]; Human immunodeficiency virus 1, read-out: IC90 of the combination, UK-427,857 with PRO 140, 1:1 fixed molar ratio, FIG. 15A", "result": 4.6, "unit": "nM"}, {"measurement": "CI90", "setting": "[1]; UK-427,857 with PRO 140 1:1, experiment depicted in FIG. 15A", "result": 0.32}]}, {"compound": "Cc1ccnc2c1NC(=O)c1cccnc1N2C1CC1", "note": "[nevirapine]", "values": [{"measurement": "IC50", "setting": "[2]", "result": 42, "unit": "nM"}, {"measurement": "IC90", "setting": "[2]", "result": 280, "unit": "nM"}, {"measurement": "IC50", "setting": "[3]", "result": 30, "unit": "nM"}, {"measurement": "IC90", "setting": "[3]", "result": 310, "unit": "nM"}]}, {"compound": "Cc1cn([C@H]2C[C@H](N=[N+]=[N-])[C@@H](CO)O2)c(=O)[nH]c1=O", "note": "[zidovudine]", "values": [{"measurement": "IC50", "setting": "[2]", "result": 86, "unit": "nM"}, {"measurement": "IC90", "setting": "[2]", "result": 2100, "unit": "nM"}, {"measurement": "IC50", "setting": "[3]", "result": 140, "unit": "nM"}, {"measurement": "IC90", "setting": "[3]", "result": 1900, "unit": "nM"}]}, {"compound": "RANTES: CC-chemokine, natural peptide ligand of CCR5, purchased from R&D Systems", "values": [{"measurement": "CI values (50% and 90% inhibition)", "setting": "[1]; in combination with PRO 140", "result": "Similarly potent synergy"}, {"measurement": "CI50", "setting": "[1]; labelled 1st inhibitor with 2nd inhibitor UK-427,857, equimolar", "result": "Similarly potent synergy"}, {"measurement": "inhibition of HIV-1 pseudovirus entry (in words)", "setting": "[3]; inhibitor alone", "result": "Neither TAK-779 nor RANTES mediated consistent, high-level inhibition"}, {"measurement": "Mean CT (Combination Index at IC50 value)", "setting": "[4]", "result": "0.59 ± 0.08"}]}]}
